Literature values as cited in Sander's compilation of Henry's law constants (doi:10.1002/etc.5620190905).

Experiment: Henry solubility constant Hcp at 298.15 K (mol/(m3 Pa))
Settings: reference: Armbrust (2000); cited value

| Compound | Henry solubility constant Hcp |
| --- | --- |
| N#Cc1c(Cl)c(Cl)c(Cl)c(C#N)c1Cl [2,4,5,6-tetrachloro-1,3-dicyanobenzene] | 45 |
| O=C(O)COc1ccc(Cl)cc1Cl [(2,4-dichlorophenoxy)-ethanoic acid] | 5.5e+06 |
| CCN(CC)C(=O)SCc1ccc(Cl)cc1 [S-(4-chlorobenzyl) diethylthiocarbamate] | 37 |
| O=C(O)COc1nc(Cl)c(Cl)cc1Cl [[(3,5,6-trichloro-2-pyridinyl)oxy]-acetic acid] | 12000 |
| COC(=O)c1ccccc1CS(=O)(=O)NC(=O)Nc1nc(OC)cc(OC)n1 [bensulfuron methyl] | 7e+10 |
| CCOP(=S)(OCC)Oc1nc(Cl)c(Cl)cc1Cl [chlorpyrifos] | 1.4 |
| COc1nc(C)nc(NC(=O)NS(=O)(=O)c2ccccc2Cl)n1 [chlorsulfuron] | 150000 |
| COc1c(Cl)ccc(Cl)c1C(=O)O [dicamba] | 22000 |
| O=[N+]([O-])/N=C1\NCCN1Cc1ccc(Cl)nc1 [imidacloprid] | 4.9e+09 |
| CC(C)Oc1cc(-n2nc(C(C)(C)C)oc2=O)c(Cl)cc1Cl [oxadiazon] | 140 |
| COC(=O)c1ccccc1S(=O)(=O)NC(=O)Nc1nc(C)cc(C)n1 [sulfometuron methyl] | 8.2e+12 |
